The test system of data set [1] is H2052 cells. Briefly: Specificity of endocytosis inhibitors (Transferrin / Dextran uptake, flow cytometry). It is filed as cell-based, human. As to conditions: Transferrin and Dextran (70 kD) markers, 1 h. The method, then: FIGS. 10A-10D. Determining the effect of chemical inhibitors on endocytic uptake of Transferrin and Dextran (70 kD), the markers for clathrin-dependent and macropinocytic pathways, in H2052 human mesothelioma cells. Flow cytometric histograms of cells treated with (FIG. 10A) Rhodamine-labeled Transferrin for 1 h in presence or absence of Cytochalasin D, Dynasore, EIPA and cells treated (FIG. 10B) with Rhodamine-labeled Transferrin for 1 h in presence or absence of Cytochalasin D, Dynasore, EIPA. Flow cytometric histograms of cells (FIG. 10C) treated with FITC-labeled Dextran and cells treated with FITC-labeled Dextran (FIG. 10D) for 1 h in presence or absence of Nystatin.
Flow cytometry. In vitro miRNA transfection efficiency of nanoparticles was determined using human mesothelioma cell H2052 (ATCC). For flow cytometry, 1.2×10^5 cells were seeded on 6 well plate 24 h before treatment and allowed to grow under normal culture conditions. FAM (6-carboxyfluorescein, 5′ end)-labeled scrambled miRNA (Thermo Fisher) was complexed with Peptide 1 in a 10:1 N/P ratio according to the protocol described above. Nanoparticles obtained were diluted with optiMEM (Thermo Fisher) to maintain a final miRNA concentration of 40 nM. Complexes of commercial transfection agents (In vivo jet PEI, Polyplus-transfection and DharmaFECT, Dharmacon) and equivalent amount of miRNA were prepared according to manufacturers' instruction. […] To determine the specificity of the inhibitors towards each endocytic pathway in H2052 cells, cellular internalization of Rhodamine or FITC-labeled Transferrin (marker for clathrin mediated uptake, Thermo Fisher) and Rhodamine or FITC-labeled Dextran (70 kD, marker for micropinocytosis, Thermo Fisher) in presence and absence of inhibitors were analyzed with flow cytometry. […] Median fluorescence intensity (MFI) for gated live cell population was determined for cells treated with each inhibitor and normalized with respect to the sample without inhibitor treatment.

The test system of data set [2] is FAM-labeled scrambled miRNA. The data set is described as follows: Fluorescence-based binding assay between peptides and miRNA. As to conditions: 30 nM FAM-miRNA; peptide vs miRNA molar ratio 0.3125 to 1000; complexed in water, diluted with 25 mM HEPES pH 7.4. The method, then:
Binding interactions among peptides and miRNA were studied using a fluorescence measurement. Scrambled miRNA (sequence mismatched with all possible mRNAs in human) labeled with FAM (6-carboxyfluorescein, 5′ end) was mixed with peptides having peptide vs miRNA molar ratio ranging from 0.3125 to 1000. Complexation was first performed in water, followed by dilution of the complex with HEPES (25 mM HEPES, pH 7.4) to keep pH of the suspension unaltered across all peptide concentrations. With increasing mole ratio, FAM fluorescence gradually gets quenched resulting from peptide-mediated condensation. […] Concentrations of Peptide 1 to induce maximum quenching were close to a molar ratio of 50:1 between Peptide 1 and miRNA which corresponds to an N/P ratio (charge ratio) of 10:1. Accordingly, a ratio of 10:1 as the N/P ratio was used for further assessment.
Fluorescence-based binding assay was used to determine interaction between peptides and miRNA. […] FAM fluorophore on miRNA was excited at 490 nm and emission at 520 nm was recorded using a microplate reader (Tecan Infinite 200) with a band-pass filter of 20 nm. A PTI fluorimeter was used to record fluorescence spectrum for Peptide 1/miRNA nanoparticles at N/P ratio 10:1 (molar ratio of 50:1, Peptide 1 vs miRNA) in the emission range of 500-700 nm.

Data set [3] in a line: Circular dichroism spectroscopy of Peptide 1 with miRNA / heparin. It is filed as physicochemical. The method, then: Circular Dichroism Spectroscopy. Secondary structure of Peptide 1 in presence or absence of added miRNA was determined using Circular Dichroism (CD) spectroscopy. For recording CD spectra in water, 150 μL from the aqueous solutions of Peptide 1 was mixed with 150 μL of an aqueous solution of scrambled miRNA to maintain peptide vs miRNA N/P ratios at 10:1, 5:1, 2:1 and 1:1. These N/P ratios correspond to peptide vs miRNA mole ratios of 50:1, 25:1, 10:[…], respectively. Nanoparticles and soluble peptides of 300 μL total volume were equilibrated for 30 min at 37° C. with agitation. Final concentration of miRNA was maintained at 5 μM. Samples were transferred into a quartz cell of path-length 1 mm and data collection were initiated immediately. Ellipticity was measured over a wavelength range of 190-260 nm at 37° C., using 1 nm step size and a set of 3-5 scans. Raw data was corrected by subtracting the absorbance of samples from those of miRNA and converted to mean residue ellipticity using the equation: [θ]=θobs/(10*l*c*r) where θobs is the measured ellipticity (mdeg), l is the path length (0.1 cm), c is the concentration of peptide (determined from UV absorbance at 220 nm) and r corresponds to the number of amino acid residues in the peptide. […]

Data set [4] has as its system H2052 cells. Briefly: LDH cytotoxicity assay. It is filed as cell-based, human. As to conditions: 4 h post-incubation. The method, then:
LDH assay kit (Roche) was used to determine any possible cytotoxicity of Peptide 1/miRNA nanoparticles and soluble Peptide 1. Cell supernatant was taken out after 4 h of treatment and a reaction mixture containing diaphorase/NAD+/iodotetrazolium chloride/sodium lactate was added following manufacturer's instructions to detect any released LDH (Lactate Dehydrogenase). Triton X-100 at a final concentration was used as a high control for maximal releasable LDH, while untreated cells were taken as low control for spontaneous LDH release. Absorbance was measured at 490 nm after 5 minutes of incubation at 37° C. Cytotoxicity was calculated using the equation: (Absorbance^treated−Absorbance^low control/Absorbance^high control−Absorbance^low control)×100.

The nature of data set [5]: Hydrogel composite formation with different hydrogelating peptides. It is filed as physicochemical. As to conditions: 24 h post-assembly, irrespective of nanoparticle loaded. The method, then: Preparation and characterization of hydrogel composites. Required amount of miRNA was diluted in water and mixed with an aqueous solution of Peptide 1 in a 10:1 N/P ratio to maintain a final volume of 25 μL. The suspension was incubated for 30 min at 37° C. with constant agitation and the resulting nanoparticles were mixed with 25 μL of chilled 2×HBS (50 mM HEPES 300 mM NaCl, pH 7.4). 50 μL of 1% (w/v) solution of a hydrogelating peptide (Peptides 1, 2, 3 and 4) was prepared in a chilled 25 mM HEPES (pH 7.4), mixed with an equal volume of nanoparticle suspension and incubated at 37° C. for overnight to afford 0.5 wt % hydrogel composites. Gel composites containing 1% of hydrogelating peptide was also prepared similarly. For Transmission Electron Microscopy of gel composites, ˜4 μL of the sample was deposited onto 200 mesh carbon coated copper grids and allowed to adhere for 30 seconds. The excess sample was removed with a filter paper. Uranyl acetate (5 μL) was used to stain the grids for 30 seconds. Grids were dried for 2-3 minutes. Images were acquired using a Tecnai T12 transmission electron microscope.

`C=C1[C@@H](C)[C@H]2[C@H](Cc3ccccc3)NC(=O)[C@]23[C@H](OC(C)=O)/C=C/[C@@](C)(O)C(=O)[C@@H](C)C/C=C/[C@H]3[C@@H]1O` [Cytochalasin D]: the Endocytic pathway inhibited entry with H2052 cells [1] was “inhibitors for clathrin-dependent pathways”.

`O=C(N/N=C/c1ccc(O)c(O)c1)c1cc2ccccc2cc1O` [Dynasore]: the Endocytic pathway inhibited result with H2052 cells [1] is on record as “inhibitors for clathrin-dependent pathways”.

Turning to `CCN(c1nc(N)c(C(=O)NC(=N)N)nc1Cl)C(C)C` [EIPA], in the data set on H2052 cells [1], the Endocytic pathway inhibited entry was “selective inhibitor of micropinocytosis”.

VKVKVKVKV^DPPTKVKVKVKV-NH2 [Peptide 1]: the “Extent of quenching of FAM fluorescence (peptide-mediated condensation of miRNA)” value in data set [2] is listed as “maximal”. The “Folding into a β-hairpin structure in the nanoparticles” value in data set [3] (N/P ratio 10:1, water) is given as “not enough to induce any significant folding”. In data set [3] (Peptide 1 complexed with miRNA at N/P 10:1, water, 37° C.), the “Heparin concentration at which evolution of β-sheet structure starts” value came out at 50 µg/mL. Also, the “Cytotoxicity as compared to positive control Triton X-100” value in the data set on H2052 cells [4] is 20%. In data set [5], the “Formation of gel-like material when used as self-assembling peptide” value is reported as “does not form a gel-like material”.

As to VLTKVKTKV^DPPTKVEVKVLV-NH2 [Peptide 3], in data set [2], the “Extent of quenching of FAM fluorescence (peptide-mediated condensation of miRNA)” value is “not able to promote significant condensation of miRNA”.

The values above are taken from US11904057B2, “Nanoparticle-hydrogel composite for nucleic acid molecule delivery” (The United States of America, as represented by the …, priority 2018, dated 2024).
